{"source": "patent US12606517B2", "about": "“Ibuprofen ester derivative and emulsion preparation thereof” (NANJING HERON PHARMACEUTICAL SCIENCE AND TECHNOLOGY CO., …, priority 2021, dated 2026)", "key": {"[1]": {"assay": "Pharmacokinetics of PEG400 solution versus emulsion injection in rats (Test Example 5)", "type": "in vivo", "settings": "tail vein, equimolar dose", "experimental": "The PEG solution (3250 μL) of the test compound was pipetted into a 10 mL EP tube, 1750 μL of normal saline was added into the tube with the dispensing gun, and the mixture was vortexed to be uniformly mixed to obtain a dosing solution with a concentration of 1.3 mg/mL and a volume of 5 mL.\nMethod for preparing the test solution of N9(S) (emulsion injection): an emulsion injection (215 μL) containing N9(S) compound (the content of which was 60 mg/mL) was added into a 15 mL EP tube and 10 mL of normal saline was added into the tube with a dispensing gun to obtain a dosing solution with a concentration of 1.3 mg/mL and […]."}, "[2]": {"assay": "Metabolism of the compound in human plasma in vitro", "type": "in vitro ADME", "experimental": "In the present application, the conversion characteristics of Compound N9 and its isomers were evaluated by establishing an in vitro human plasma metabolism model. The test scheme was as follows: • (1) stock solutions (40 mM) of Compounds N9, N9(S) and N9(R) in pure acetonitrile were formulated respectively, and a stock solution (40 mM) of ibuprofen in pure acetonitrile was formulated; • (2) 25 μL stock solution of ibuprofen was mixed with 1 mL of human plasma and vortexed for 30 s. […]"}}, "note": "“Also recorded” adds a separate entry of the source."}
{"smiles": "CCOC(=O)OC(CC)OC(=O)[C@@H](C)c1ccc(CC(C)C)cc1", "note": "(stereo partly drawn) [N9(S)]", "values": [{"measurement": "drug-time curve of dexibuprofen in vivo versus arginine solution of dexibuprofen (in words)", "setting": "[1]; PEG400 solubilized solution", "result": "basically coincide"}, {"measurement": "drug-time curve of dexibuprofen in vivo versus arginine solution of dexibuprofen (in words)", "setting": "[1]; emulsion injection", "result": "basically coincide"}, {"measurement": "Remaining amount of a prodrug compound (%)", "setting": "[2]; 37° C., 120 min", "result": "45.0 ± 2.1", "unit": "%"}, {"measurement": "hydrolysis / metabolic rate in plasma (in words)", "setting": "[2]; comparison between isomers", "result": "faster hydrolysis rate in plasma than N9(R); also recorded: faster metabolic rate than the racemate N9"}]}
